For orientation: IC50 means the concentration needed to halve the response being measured.

For this experiment, the target named is T1, Human complement C1s enzyme (Homo sapiens, UniProt P09871).
T1 construct: purified from human serum, Complement Technology, Inc; purchased Complement Technology, Inc; host or cells: human serum (plasma-derived native protein)
T1 sequence (P09871 438-688 limits assumed): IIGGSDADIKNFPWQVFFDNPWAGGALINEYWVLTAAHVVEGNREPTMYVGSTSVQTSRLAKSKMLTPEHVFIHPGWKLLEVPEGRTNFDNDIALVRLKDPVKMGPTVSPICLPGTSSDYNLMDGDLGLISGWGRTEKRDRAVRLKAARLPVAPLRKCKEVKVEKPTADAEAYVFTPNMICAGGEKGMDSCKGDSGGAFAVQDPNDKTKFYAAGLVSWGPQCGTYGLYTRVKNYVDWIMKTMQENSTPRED
T1 sequence (P09871 16-437 partner limits assumed): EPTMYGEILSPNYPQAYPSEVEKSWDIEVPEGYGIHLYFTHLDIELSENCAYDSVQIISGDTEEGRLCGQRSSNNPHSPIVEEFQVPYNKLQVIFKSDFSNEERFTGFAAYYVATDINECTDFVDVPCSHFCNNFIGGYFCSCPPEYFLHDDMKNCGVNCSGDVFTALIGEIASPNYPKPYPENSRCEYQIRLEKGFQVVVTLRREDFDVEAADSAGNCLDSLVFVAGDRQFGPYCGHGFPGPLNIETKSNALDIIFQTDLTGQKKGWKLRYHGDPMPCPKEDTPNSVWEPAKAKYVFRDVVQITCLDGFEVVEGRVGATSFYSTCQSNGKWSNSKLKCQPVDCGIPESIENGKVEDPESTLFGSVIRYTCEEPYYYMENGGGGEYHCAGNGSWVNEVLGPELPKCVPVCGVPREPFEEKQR
As to the kind of experiment: Human C1s enzyme assay. Format: biochemical. The following applies: human complement C1s enzyme 1.16 nM, substrate Z-L-Lys-SBzl, A405; read-out: IC50 (Stars). The gist of the method: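 Serum-purified human C1s (1.16 nM final) preincubated 5 min at room temperature with compound in 50 mM Tris, 1 M NaCl, pH 7.5. Z-L-Lys-SBzl and DTNB added at 100 μM each; A405 recorded every 30 s. IC50 from nonlinear regression of reaction rates versus compound concentration.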

Each structure is given as a SMILES string.

For `C[C@@H](Nc1cnc(-c2ccc(C3(F)COC3)cc2)n(CC(=O)NCc2cc3cnccc3[nH]2)c1=O)c1ccc2oc3ccccc3c2c1` [Compound 372, (R)—N-((1H-pyrrolo[3,2-c]pyridine-2-yl)methyl)-2-(5-((1-(dibenzo[b,d]furan-2-yl)ethyl)amino)-2-(4-(3-fluorooxetan-3-yl)phenyl)-6-oxopyrimidin-1(6H)-yl)acetamide], the IC50 is less than 100 nM.

As to `C[C@@H](Nc1cnc(N2CC3(CCC3)C2)n(CC(=O)NCc2cc3cnccc3[nH]2)c1=O)c1ccc2oc3ccccc3c2c1` [Compound 373, (R)-N-((1H-pyrrolo[3,2-c]pyridin-2-yl)methyl)-2-(5-((1-(dibenzo[b,d]furan-2-yl)ethyl)-amino)-6-oxo-2-(2-azaspiro [3.3]heptan-2-yl)pyrimidin-1(6H)-yl)acetamide], the IC50 is greater than 1000 nM.

For the compound `C[C@@H](Nc1cnc(N2CC3(C2)CC(F)(F)C3)n(CC(=O)NCc2cc3cnccc3[nH]2)c1=O)c1ccc2oc3ccccc3c2c1` [Compound 374, (R)-N-((1H-pyrrolo[3,2-c]pyridin-2-yl)methyl)-2-(5-((1-(dibenzo[b,d]furan-2-yl)ethyl)-amino)-2-(6,6-difluoro-2-aza-spiro[3.3]heptan-2-yl)-6-oxo-pyrimidin-1(6H)-yl)acetamide], the IC50 was greater than 1000 nM.

Consider `C[C@@H](Nc1cnc(N2CCNCC2)n(CC(=O)NCc2cc3cnccc3[nH]2)c1=O)c1ccc2oc3ccccc3c2c1` [Compound 376, (R)—N-((1H-pyrrolo[3,2-c]pyridine-2-yl)methyl)-2-(5-((1-(dibenzo[b,d]furan-2-yl)ethyl)amino)-6-oxo-2-(piperazin-1-yl)pyrimidin-1(6H)-yl)acetamide], for which the IC50 was less than 100 nM.

In the case of `C[C@@H](Nc1cnc(-c2ccc(O[C@@H]3CO[C@H]4[C@@H]3OC[C@H]4O)cc2)n(CC(=O)NCc2cc3cnccc3[nH]2)c1=O)c1ccc2oc3ccccc3c2c1` [Compound 377, N-((1H-pyrrolo[3,2-c]pyridine-2-yl)methyl)-2-(5-(((R)-1-(dibenzo[b,d]furan-2-yl)ethyl)amino)-2-(4-(((3R,3aR,6R,6aR)-6-hydroxyhexahydrofuro[3,2-b]furan-3-yl)oxy)phenyl)-6-oxopyrimidin-1(6H)-yl)acetamide], the IC50 is less than 100 nM.

As to `Cc1ncc(N[C@H](C)c2ccc3oc4ccccc4c3c2)c(=O)n1CC(=O)NCc1cc2cnccc2[nH]1` [Compound 378, (R)-N-((1H-pyrrolo[3,2-c]pyridin-2-yl)methyl)-2-(5-((1-(dibenzo[b,d]furan-2-yl)ethyl)-amino)-2-methyl-6-oxopyrimi-din-1(6H)-yl)acetamide], the IC50 was greater than 1000 nM.

`C[C@@H](Nc1cnc(N2CCC(F)(F)CC2)n(CC(=O)NCc2cc3cnccc3[nH]2)c1=O)c1ccc2oc3ccccc3c2c1` [Compound 379, (R)-N-((1H-pyrrolo[3,2-c]pyridin-2-yl)methyl)-2-(5-((1-(dibenzo[b,d]furan-2-yl)ethyl)-amino)-2-(4,4-difluoropiperi-din-1-yl)-6-oxopyrimidin-1(6H)-yl)acetamide]: the IC50 is greater than 1000 nM.

For the compound `C[C@@H](Nc1cnc(N2CCC(O)CC2)n(CC(=O)NCc2cc3cnccc3[nH]2)c1=O)c1ccc2oc3ccccc3c2c1` [Compound 380, (R)-N-((1H-pyrrolo[3,2-c]pyridin-2-yl)methyl)-2-(5-((1-(dibenzo[b,d]furan-2-yl)ethyl)-amino)-2-(4-hydroxypiperidin-1-yl)-6-oxopyrimidin-1(6H)-yl)acetamide], the IC50 was 100 to 1000 nM.

Take `CC1CCCN(c2ncc(N[C@H](C)c3ccc4oc5ccccc5c4c3)c(=O)n2CC(=O)NCc2cc3cnccc3[nH]2)C1` (stereo partly drawn) [Compound 381, N-((1H-pyrrolo[3,2-c]pyridin-2-yl)methyl)-2-(5-(((R)-1-(dibenzo[b,d]furan-2-yl)ethyl)-amino)-2-(3-methylpiperidin-1-yl)-6-oxopyrimidin-1(6H)-yl)acetamide]: the IC50 was greater than 1000 nM.

For `C[C@@H](Nc1cnc(N2CCC3(CC2)OCCO3)n(CC(=O)NCc2cc3cnccc3[nH]2)c1=O)c1ccc2oc3ccccc3c2c1` [Compound 382, (R)-N-((1H-pyrrolo[3,2-c]pyridin-2-yl)methyl)-2-(5-((1-(dibenzo[b,d]furan-2-yl)ethyl)-amino)-6-oxo-2-(1,4-dioxa-8-azaspiro[4.5]decan-8-yl)pyr-imidin-1(6H)-yl)acetamide], the IC50 is less than 100 nM.

On to `C[C@@H](Nc1cnc(N2CC3CCC2C3)n(CC(=O)NCc2cc3cnccc3[nH]2)c1=O)c1ccc2oc3ccccc3c2c1` (stereo partly drawn) [Compound 383, N-((1H-pyrrolo[3,2-c]pyridine-2-yl)methyl)-2-(2-(2-azabicyclo[2.2.1]heptan-2-yl)-5-(((R)-1-(dibenzo[b,d]furan-2-yl)ethyl)amino)-6-oxopyrimidin-1(6H)-yl)acetamide], for which the half-maximal inhibitory concentration (IC50) was greater than 1000 nM.

`C[C@@H](Nc1cnc(N2CCSCC2)n(CC(=O)NCc2cc3cnccc3[nH]2)c1=O)c1ccc2oc3ccccc3c2c1` [Compound 384, (R)-N-((1H-pyrrolo[3,2-c]pyridin-2-yl)methyl)-2-(5-((1-(dibenzo[b,d]furan-2-yl)ethyl)-amino)-6-oxo-2-thiomorpho-linopyrimidin-1(6H)-yl)acet-amide]: the IC50 lay within 100 to 1000 nM.

Turning to `C[C@@H](Nc1cnc(N2CCS(=O)(=O)CC2)n(CC(=O)NCc2cc3cnccc3[nH]2)c1=O)c1ccc2oc3ccccc3c2c1` [Compound 385, (R)-N-((1H-pyrrolo[3,2-c]pyridin-2-yl)methyl)-2-(5-((1-(dibenzo[b,d]furan-2-yl)ethyl)-amino)-2-(1,1-dioxidothio-morpholino)-6-oxopyrimidin-1(6H)-yl)acetamide], the half-maximal inhibitory concentration (IC50) was greater than 1000 nM.

Consider `C[C@@H](Nc1cnc(N2CC(O)C2)n(CC(=O)NCc2cc3cnccc3[nH]2)c1=O)c1ccc2oc3ccccc3c2c1` [Compound 386, (R)-N-((1H-pyrrolo[3,2-c]pyridin-2-yl)methyl)-2-(5-((1-(dibenzo[b,d]furan-2-yl)ethyl)-amino)-2-(3-hydroxyazetidin-1-yl)-6-oxopyrimidin-1(6H)-yl)acetamide], for which the IC50 was greater than 1000 nM.

With `C[C@@H](Nc1cnc(N2C[C@H]3C[C@@H](C2)C3)n(CC(=O)NCc2cc3cnccc3[nH]2)c1=O)c1ccc2oc3ccccc3c2c1` [Compound 387, N-((1H-pyrrolo[3,2-c]pyridin-2-yl)methyl)-2-(2-((1S,5S)-3-azabicyclo[3.1.1]heptan-3-yl)-5-(((R)-1-(dibenzo[b,d]furan-2-yl)ethyl)amino)-6-oxopyr-imidin-1(6H)-yl)acetamide], the IC50 lay in the range of 100 to 1000 nM.

For the compound `C[C@@H](Nc1cnc(N2CCCCCC2)n(CC(=O)NCc2cc3cnccc3[nH]2)c1=O)c1ccc2oc3ccccc3c2c1` [Compound 388, (R)-N-((1H-pyrrolo[3,2-c]pyridin-2-yl)methyl)-2-(2-(azepan-1-yl)-5-((1-(dibenzo [b,d]furan-2-yl)ethyl)amino)-6-oxopyrimidin-1(6H)-yl)-acetamide], the IC50 lay within 100 to 1000 nM.

For the compound `C[C@@H](Nc1cnc(N2CCN(C)CC2)n(CC(=O)NCc2cc3cnccc3[nH]2)c1=O)c1ccc2oc3ccccc3c2c1` [Compound 389, (R)-N-((1H-pyrrolo[3,2-c]pyridin-2-yl)methyl)-2-(5-((1-(dibenzo[b,d]furan-2-yl)ethyl)-amino)-2-(4-methylpiperazin-1-yl)-6-oxopyrimidin-1(6H)-yl)acetamide], the IC50 was less than 100 nM.

On to `C[C@@H](Nc1nnc(-c2ccccc2F)n(CC(=O)NCc2cc3cnccc3[nH]2)c1=O)c1ccc2oc3ccccc3c2c1` [Compound 390, (R)—N-((1H-pyrrolo[3,2-c]pyridine-2-yl)methyl)-2-(6-((1-(dibenzo[b,d]furan-2-yl)ethyl)amino)-3-(2-fluorophenyl)-5-oxo-1,2,4-triazin-4(5H)-yl)acetamide], for which the half-inhibitory concentration (IC50) was less than 100 nM.

On to `Cc1ncc(-c2ncc(N[C@H](C)c3ccc4oc5ccccc5c4c3)c(=O)n2CC(=O)NCc2cc3cnccc3[nH]2)cn1` [Compound 391, (R)-N-((1H-pyrrolo[3,2-c]pyridin-2-yl)methyl)-2-(5-((1-(dibenzo[b,d]furan-2-yl)ethyl)-amino)-2′-methyl-6-oxo-[2,5′-bipyrimidin]-1(6H)-yl)acet-amide], for which the IC50 lay within 100 to 1000 nM.

With `O=C(Cn1cncc(NC(=O)c2coc(-c3ccccc3)n2)c1=O)NCc1cc2cnccc2[nH]1` [Compound 392, N-(1-(2-(((1H-pyrrolo[3,2-c]pyridin-2-yl)methyl)amino)-2-oxoethyl)-6-oxo-1,6-dihydro-pyrimidin-5-yl)-2-phenyl-oxazole-4-carboxamide], the IC50 was less than 100 nM.

With `O=C(Cn1cncc(NC(=O)c2csc(-c3ccccc3)n2)c1=O)NCc1cc2cnccc2[nH]1` [Compound 393, N-(1-(2-(((1H-pyrrolo[3,2-c]pyridin-2-yl)methyl)amino)-2-oxoethyl)-6-oxo-1,6-dihydro-pyrimidin-5-yl)-2-phenyl-thiazole-4-carboxamide], the IC50 fell in the range of 100 to 1000 nM.

The values are drawn from patent US20260184707A1, “PHARMACEUTICAL COMPOUNDS FOR THE TREATMENT OF COMPLEMENT MEDIATED DISORDERS” (ALEXION PHARMACEUTICALS, INC., priority 2022, published 2026).
